Where a chain is given by its changes, count along the chain named. Read-outs that look alike come from different tables or passages of the source. Where a SMILES comes first, the peptide text is derived from it.

The target of one experiment is T1, MOB1A (Homo sapiens, UniProt Q9H8S9).
T1 construct: MOB1A (2–216, NP_060691); 6xHis (N, cleaved yes); GST (N, cleaved yes); made in house; host or cells: E. coli BL21 (DE3) CodonPlus RIL
T1 sequence (Q9H8S9 2-216): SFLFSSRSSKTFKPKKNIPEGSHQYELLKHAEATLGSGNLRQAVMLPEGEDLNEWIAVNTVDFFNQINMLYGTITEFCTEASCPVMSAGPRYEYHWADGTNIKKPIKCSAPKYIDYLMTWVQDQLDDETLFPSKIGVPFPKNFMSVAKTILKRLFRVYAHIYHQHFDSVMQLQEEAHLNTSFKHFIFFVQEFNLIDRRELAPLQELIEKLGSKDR
The experiment in a line: Fluorescence polarization peptide binding assay, MOB1A wild-type. The following applies: FP. From the text: (§1) Human MST1 kinase domain (amino acids 2–326, corresponding to NCBI RefSeq protein NP_006273), MST2 kinase domain (2–322, NP_006272), MOB1B (2–216, NP_001231695), MOB1A (2–216, NP_060691) wild-type and indicated MOB1A mutant proteins, MOB2 (2–237, NP_001165694), MOB3A (2–217, NP_570719), MOB3B (2–216, NP_079037), MOB3C (2–216, NP_660322), MOB4 (2–225, NP_056202), MOB4^RRR→AAA (2–225), and yeast Mob1 (79–314, NP_012160) were expressed in E. coli BL21 (DE3) CodonPlus RIL cells as N-terminal dual 6xhistidine (HIS) and glutathione S-transferase (GST), Tobacco Etch Virus (TEV) cleavable, fusion proteins using a modified pETM-30 vector. MOB wild-type and mutants were purified in batch on glutathione-Sepharose resin (GE Healthcare, Uppsala, Sweden) and eluted by cleavage from the affinity tags with HIS tagged TEV protease. TEV protease was removed from the eluted protein by subtractive immobilized-metal affinity chromatography. Cleaved protein was then concentrated and buffer exchanged by size exclusion chromatography (SEC) using a Superdex 75 120 ml column (GE Healthcare). For GST pull-downs and Far-Western analysis, the TEV cleavage step was omitted.
MST1 phosphopeptides encompassing pT353 and pT367 (15-mers) used for crystallization and FITC labeled nonphosphorylated and phosphorylated MST1 T353 peptides, T367 peptides, T329-T340 peptides, T380-T387 peptides and optimized Nud1-like peptides for fluorescence polarization binding experiments were purchased from Biomatik (Cambridge, ON). Peptide sequences used for crystallization studies are: T353, […](p)TMIEH and T367, […](p)TMVINA. All peptides used for biophysical studies are listed in supplemental Table S1.
Twelve-point fluorescence polarization binding measurements were performed in triplicate in 384-well plate format using an Analyst HT (Artisan-Scientific, Sunnyvale, CA) reader. Each 20 μl measurement condition contained 20 nM FITC labeled MST1 peptide or Nud1-like peptide and the indicated concentration of MOB proteins in 25 mM HEPES pH 7.5, 150 mM NaCl, 2 mM DTT, and 1 mg/ml bovine serum albumin (BSA). Kd values were obtained by fitting the results to a one site-specific binding model using GraphPad Prism.

The next experiment deals with T2, MOB1A KRR→3A mutant (Homo sapiens, UniProt Q9H8S9, K153A/R154A/R157A).
T2 construct: MOB1A (2–216, NP_060691) wild-type and indicated MOB1A mutant proteins; 6xHis (N, cleaved yes); GST (N, cleaved yes); made in house; host or cells: E. coli BL21 (DE3) CodonPlus RIL
T2 sequence (Q9H8S9 2-216 K153A/R154A/R157A): T1 sequence (Q9H8S9 2-216) with K152A, R153A, R156A
The experiment in a line: Fluorescence polarization peptide binding assay, MOB1A KRR→3A mutant (K153, R154, R157 to alanine). The following applies: Fig. 2B, MOB1A KRR→3A (K153, R154, R157 to alanine); FP, 20 nM FITC labeled peptide, pH 7.5; n = 3; N.D. = Kd could not be determined.
Text: as §1, with “TEV protease was removed from the eluted protein by subtractive immobilized-metal affinity chromatography. Cleaved protein was then concentrated and buffer exchanged by size exclusion chromatography (SEC) using a Superdex 75 120 ml column (GE Healthcare). For GST pull-downs and Far-Western analysis, the TEV cleavage step was omitted.” left out
MST1 phosphopeptides encompassing pT353 and pT367 (15-mers) used for crystallization and FITC labeled nonphosphorylated and phosphorylated MST1 T353 peptides, T367 peptides, T329-T340 peptides, T380-T387 peptides and optimized Nud1-like peptides for fluorescence polarization binding experiments were purchased from Biomatik (Cambridge, ON). […]
Twelve-point fluorescence polarization binding measurements were performed in triplicate in 384-well plate format using an Analyst HT (Artisan-Scientific, Sunnyvale, CA) reader. […]

The subject of a further experiment is GST-MOB1B. The experiment in a line: Peptide array Far-Western overlay with GST-MOB1B. Conditions: cellulose-bound 15-mer peptide SPOT array probed with 1 μg GST-MOB1B at 20 °C overnight, anti-GST HRP detection. It is filed as binding, human. As to the method:
Cellulose-bound peptide arrays were prepared employing Fmoc solid phase peptide synthesis using a MultiPep-RSi-Spotter (INTAVIS, Köln, Germany) according to the SPOT synthesis method provided by the manufacturer, and previously described ([29]). Peptides were synthesized on amino-functionalized cellulose membranes (Whatman™ Chromatography paper Grade 1CHR, GE Healthcare Life Sciences #3001–878) and the presence of SPOTed peptides was confirmed by ultraviolet light (UV, λ = […]). Peptide sequences were chosen for each of the phosphorylated sites within the sequence encompassing residues 327 to 487 of MST1 as reported in PhosphositePlus (31/01/2014, ref 30). In addition, 15 amino acid-long peptides spanning the entire MST1 linker region (aa 327–487) were also synthesized in both phospho- and nonphosphorylated versions (for every serine, threonine, or tyrosine position; supplemental Fig. S1). Subsequent arrays were generated by alanine scanning from the pT353 and pT367 peptide sequences. The peptide arrays were soaked in 100% ethanol and blocked in 5% milk in H2O for 6 h at 20 °C. One microgram of GST-MOB1B (or GST alone) was used to probe the arrays at 20 °C overnight. Following washes with PBS plus 0.1% Tween-20, the arrays were blocked again in 5% milk for 1 h. […]

A further experiment concerns the target yeast Mob1. Conditions: yeast Mob1 binding to Nud1 short linear phosphopeptide motif; cited from earlier work. From the text: Key to its function as a Hippo pathway activator is the ability of MOB1 to bind directly to MST1 and MST2 kinases. Recent structural studies provided key insight into the underlying mechanism of binding.
Where [1] appears, read: Fig. 3D summary of MST1 phosphopeptide affinities for MOB1A, read-out: Kd.
Where [2] appears, read: 20 nM FITC labeled peptide, recombinant wild-type MOB1A, pH 7.5.

For `CSCC[C@H](NC(=O)[C@H](CCC(=O)O)NC(=O)[C@H](CC(=O)O)NC(=O)CNC(=O)[C@@H](NC(=O)[C@H](C)NC(=O)[C@H](CCCNC(=N)N)NC(=O)[C@@H](NC(=O)[C@H](CCSC)NC(=O)[C@@H](NC(=O)CN)[C@@H](C)O)C(C)C)C(C)C)C(=O)NCC(=O)N[C@H](C(=O)N[C@H](C(=O)N[C@@H](CCCNC(=N)N)C(=O)O)C(C)C)[C@@H](C)OP(=O)(O)O` [MST1 T329/pT340 peptide] (HELM PEPTIDE1{G.T.M.V.R.A.V.G.D.E.M.G.[C[C@@H](OP(=O)(O)O)[C@H](N[*:1])C(=O)[*:2]].V.R}$$$$V2.0), the Kd at MOB1A (setting [1]) was determined as 66.1 µM. On the same count and under the same terms, then `CSCC[C@H](NC(=O)[C@H](CCC(=O)O)NC(=O)[C@H](CC(=O)O)NC(=O)CNC(=O)[C@@H](NC(=O)[C@H](C)NC(=O)[C@H](CCCNC(=N)N)NC(=O)[C@@H](NC(=O)[C@H](CCSC)NC(=O)[C@@H](NC(=O)CN)[C@@H](C)OP(=O)(O)O)C(C)C)C(C)C)C(=O)NCC(=O)N[C@H](C(=O)N[C@H](C(=O)N[C@@H](CCCNC(=N)N)C(=O)O)C(C)C)[C@@H](C)O` [MST1 pT329/T340 peptide] (HELM PEPTIDE1{G.[C[C@@H](OP(=O)(O)O)[C@H](N[*:1])C(=O)[*:2]].M.V.R.A.V.G.D.E.M.G.T.V.R}$$$$V2.0), with 46.5 µM. Take `CSCC[C@H](NC(=O)[C@H](CCC(=O)O)NC(=O)[C@H](CC(=O)O)NC(=O)CNC(=O)[C@@H](NC(=O)[C@H](C)NC(=O)[C@H](CCCNC(=N)N)NC(=O)[C@@H](NC(=O)[C@H](CCSC)NC(=O)[C@@H](NC(=O)CN)[C@@H](C)OP(=O)(O)O)C(C)C)C(C)C)C(=O)NCC(=O)N[C@H](C(=O)N[C@H](C(=O)N[C@@H](CCCNC(=N)N)C(=O)O)C(C)C)[C@@H](C)OP(=O)(O)O` [MST1 pT329/pT340 peptide] (HELM PEPTIDE1{G.[C[C@@H](OP(=O)(O)O)[C@H](N[*:1])C(=O)[*:2]].M.V.R.A.V.G.D.E.M.G.[C[C@@H](OP(=O)(O)O)[C@H](N[*:1])C(=O)[*:2]].V.R}$$$$V2.0): the Kd at MOB1A (Supplemental Fig. 4A, 4B, MOB1A, differentially phosphorylated MST1 15-mer peptides, mean ± SEM (n=3), read-out: kd) came out at 49 ± 6 µM. For `CC[C@H](C)[C@H](NC(=O)[C@H](CCSC)NC(=O)[C@@H](NC(=O)[C@H](CC(N)=O)NC(=O)[C@H](C)NC(=O)CNC(=O)[C@H](CC(=O)O)NC(=O)[C@@H](NC(=O)[C@H](CCSC)NC(=O)[C@@H](NC(=O)[C@H](CO)NC(=O)[C@H](C)NC(=O)[C@@H](N)C(C)C)[C@@H](C)O)[C@@H](C)O)[C@@H](C)O)C(=O)N[C@@H](CCC(=O)O)C(=O)N[C@@H](Cc1c[nH]cn1)C(=O)O` [T353] (H-VASTMTDGANTMIEH-OH), the Kd result on MOB1A (setting [2]) was “no detectable binding”. As to `CC[C@H](C)[C@H](NC(=O)[C@@H](NC(=O)[C@H](CCSC)NC(=O)[C@@H](NC(=O)CNC(=O)[C@H](CC(C)C)NC(=O)[C@H](CCC(N)=O)NC(=O)[C@H](CO)NC(=O)[C@@H]1CCCN1C(=O)[C@H](CC(C)C)NC(=O)[C@@H](NC(=O)[C@H](CC(=O)O)NC(=O)[C@@H](N)CC(=O)O)[C@@H](C)O)[C@@H](C)O)C(C)C)C(=O)N[C@@H](CC(N)=O)C(=O)N[C@@H](C)C(=O)O` [T367] (H-DDTLPSQLGTMVINA-OH), the Kd result on MOB1A (setting [2]) was “no detectable binding”. For `CC[C@H](C)[C@H](NC(=O)[C@H](CCSC)NC(=O)[C@@H](NC(=O)[C@H](CC(N)=O)NC(=O)[C@H](C)NC(=O)CNC(=O)[C@H](CC(=O)O)NC(=O)[C@@H](NC(=O)[C@H](CCSC)NC(=O)[C@@H](NC(=O)[C@H](CO)NC(=O)[C@H](C)NC(=O)[C@@H](N)C(C)C)[C@@H](C)O)[C@@H](C)O)[C@@H](C)OP(=O)(O)O)C(=O)N[C@@H](CCC(=O)O)C(=O)N[C@@H](Cc1c[nH]cn1)C(=O)O` [pT353] (HELM PEPTIDE1{V.A.S.T.M.T.D.G.A.N.[C[C@@H](OP(=O)(O)O)[C@H](N[*:1])C(=O)[*:2]].M.I.E.H}$$$$V2.0), the Kd result at MOB1A KRR→3A mutant was “no measurable binding”; at MOB1A (20 nM FITC labeled peptide, recombinant wild-type MOB1A, pH 7.5, read-out: Kd) it was 0.28 µM. Consider “AKPSFLEYFEQKEKE [MST1 residues 391 to 405]”, for which the “binding signal in Far-Western peptide array” value in the experiment on GST-MOB1B was “sufficient to bind to MOB1B”.

With TVLNNYSpTVHQKVPS, the Kd at yeast Mob1 is 2.4 µM.
